Patent US8106055B2, “Substituted amide compounds” (Gruenenthal GmbH, priority 2007, dated 2012)
Where two headings read alike, the source gives them in different places.

Columns and labels:
[1] = biological target: T1, human μ opiate receptor (Homo sapiens, UniProt P35372); assay: Affinity for the human μ opiate receptor ([3H]-naloxone displacement, CHO-K1 receptor membrane preparation, SPA); format: binding
T1 construct: purchased PerkinElmer Life Sciences, Zaventem, Belgium RB-HOM; host or cells: CHO-K1 cells (membrane preparation)
T1 sequence (P35372 whole entry): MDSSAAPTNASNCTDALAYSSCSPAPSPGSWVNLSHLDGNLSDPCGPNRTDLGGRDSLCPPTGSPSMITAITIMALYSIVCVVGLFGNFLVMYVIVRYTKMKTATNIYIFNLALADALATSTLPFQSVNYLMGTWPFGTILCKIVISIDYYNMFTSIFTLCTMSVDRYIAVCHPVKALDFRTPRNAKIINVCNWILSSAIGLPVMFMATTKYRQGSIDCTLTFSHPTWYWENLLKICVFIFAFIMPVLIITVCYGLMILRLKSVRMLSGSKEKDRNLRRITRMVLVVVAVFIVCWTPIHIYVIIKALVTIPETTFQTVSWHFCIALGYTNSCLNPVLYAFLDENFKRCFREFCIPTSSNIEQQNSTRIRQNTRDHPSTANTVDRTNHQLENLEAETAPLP
Summary of the method: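 SPA, CHO-K1 hμ membranes; 1 nmol/l [3H]-naloxone; Tris-HCl 50 mmol/l + 0.06% BSA; 90 min RT; NSB with 100 μmol/l naloxone; β-counting. Readout: % inhibition of specific binding at 1 μM test compound.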

[2] = biological target: T2, serotonin (5-HT) reuptake (Rattus norvegicus, UniProt P31652); assay: Inhibition of serotonin (5HT) reuptake in synaptosomes from rat brain; format: biochemical
T2 construct: synaptosomes are freshly isolated from areas of the rat brain; from tissue; host or cells: rat brain synaptosomes (P2 fraction)
T2 sequence (P31652 whole entry): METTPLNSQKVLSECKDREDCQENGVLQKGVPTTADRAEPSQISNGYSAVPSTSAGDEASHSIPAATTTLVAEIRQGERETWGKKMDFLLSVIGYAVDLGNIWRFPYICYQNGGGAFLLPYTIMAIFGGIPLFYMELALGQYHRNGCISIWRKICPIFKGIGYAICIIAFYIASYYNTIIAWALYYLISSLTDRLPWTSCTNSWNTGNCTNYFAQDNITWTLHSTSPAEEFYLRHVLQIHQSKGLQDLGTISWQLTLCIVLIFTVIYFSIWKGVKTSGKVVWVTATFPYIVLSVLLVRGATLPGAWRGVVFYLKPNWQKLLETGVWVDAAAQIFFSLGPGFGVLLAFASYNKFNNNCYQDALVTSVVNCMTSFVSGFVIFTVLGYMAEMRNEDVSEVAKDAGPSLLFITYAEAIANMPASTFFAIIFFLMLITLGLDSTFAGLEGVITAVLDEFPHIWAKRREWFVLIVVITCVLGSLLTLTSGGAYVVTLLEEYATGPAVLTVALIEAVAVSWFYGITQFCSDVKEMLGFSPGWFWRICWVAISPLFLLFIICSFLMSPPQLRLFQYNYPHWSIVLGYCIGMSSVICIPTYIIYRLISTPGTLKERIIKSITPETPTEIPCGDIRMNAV
Description: Binding data of the compounds on the μ opioid receptor and data on the inhibition of reuptake of serotonin (5-HT) are given in Table 1. The data for the μ receptor were measured at a test concentration of 1 μM, and those for the serotonin reuptake at 10 μM. The values are stated in % inhibition.
Inhibition of Serotonin (5HT) Reuptake
In order to be able to carry out these in vitro studies, synaptosomes are freshly isolated from areas of the rat brain. In each case a so-called “P2” fraction prepared in accordance with the instructions of Gray and Whittaker (E. G. Gray and V. P. Whittaker (1962) J. Anat. 76, 79-88) is prepared. For the NA uptake, these vesicular particles are isolated from the hypothalamus of male rat brains.
A detailed description of the method can be found in the literature (M. Ch. Frink, H.-H. Hennies, W. Englberger, M. Haurand and B. Wilffert (1996) Arzneim.-Forsch./Drug Res. 46 (III), 11, 1029-1036).

[3] = biological target: T3, human bradykinin 1 receptor (B1R) (Homo sapiens, UniProt P46663); assay: Functional investigation on the human bradykinin 1 receptor (B1R), Ca2+ FLIPR assay in CHO K1 hB1R cells; format: cell-based; conditions: for B1R Ant. h [10 μM] % Inhibition: B1R antagonism human
T3 construct: expressed in transfected cells; host or cells: CHO K1 cells
T3 sequence (P46663 1-353): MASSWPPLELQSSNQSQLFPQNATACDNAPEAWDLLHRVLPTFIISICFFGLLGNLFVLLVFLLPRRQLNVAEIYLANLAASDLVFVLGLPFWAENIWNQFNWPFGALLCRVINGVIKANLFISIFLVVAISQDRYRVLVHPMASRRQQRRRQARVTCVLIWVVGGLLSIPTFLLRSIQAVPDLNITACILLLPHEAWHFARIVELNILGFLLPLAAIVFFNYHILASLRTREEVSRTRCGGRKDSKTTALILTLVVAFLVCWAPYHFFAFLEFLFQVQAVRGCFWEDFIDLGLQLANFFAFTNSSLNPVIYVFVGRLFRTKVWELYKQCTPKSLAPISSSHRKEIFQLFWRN
Summary of the method: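 Peak Ca2+-dependent fluorescence in B1R-transfected CHO K1 cells measures antagonism of an EC80 agonist challenge given 10-20 min after compound. Agonist is Lys-Des-Arg9-bradykinin for human, Des-Arg9-bradykinin for rat receptor.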

[4] = test concentration of 1 μM, read-out: μ (binding on the μ opioid receptor, % inhibition)
[5] = test concentration of 10 μM, read-out: 5-HT (inhibition of reuptake of serotonin, % inhibition)
[6] = CHO-K1, B1R antagonism human, test substance 10 μM, Ca2+ FLIPR, CHO K1 hB1R cells, read-out: B1R Ant. h [10 μM] % Inhibition
[7] = CHO-K1, read-out: B1R Ant. h [10 μM] % Inhibition
[8] = test substance 10 μM, Ca2+ FLIPR, CHO K1 hB1R cells

| SMILES | inhibition at 1 µM [1, 4] [%] | inhibition at 10 µM [2, 5] [%] | inhibition at 10 µM [3, 6] [%] | μ (binding on the μ opioid receptor, % inhibition) ([1]; test concentration of 1 μM) [%] | 5-HT (inhibition of reuptake of serotonin, % inhibition) ([2]; test concentration of 10 μM) [%] | B1R Ant. h [10 μM] % Inhibition [3, 8] [%] | also measured |
| --- | --- | --- | --- | --- | --- | --- | --- |
| COc1ccc(S(=O)(=O)N2CCCCC2CCOCC(=O)NC2CCC(C(c3ccccc3)N(C)C)CC2)cc1 (centres unmarked) [Example 3, N-(4-((dimethylamino)(phenyl)methyl)cyclohexyl)-2-(2-(1-(4-methoxyphenylsulfonyl)piperidin-2-yl)ethoxy)acetamide] | 99 | 92 | 69 |  |  |  |  |
| CN(C)C(c1ccccc1)C1CCC(NC(=O)COCC2CCCCN2S(=O)(=O)c2cccc(Cl)c2Cl)CC1 (centres unmarked) [Example 24, 2-((1-(2,3-dichlorophenylsulfonyl)piperidin-2-yl)methoxy)-N-(4-((dimethylamino)(phenyl)methyl)cyclohexyl)acetamide] | 97 | 67 | 99 |  |  |  |  |
| COc1cc(C)c(S(=O)(=O)N(C)CCOCC(=O)NCC2CCC(C(c3ccccc3)N(C)C)CC2)c(C)c1C (centres unmarked) [Example 40, N-((4-((dimethylamino)(phenyl)methyl)cyclohexyl)methyl)-2-(2-(4-methoxy-N,2,3,6-tetramethylphenylsulfonamido)ethoxy)acetamide] | 96 | 84 | 99 |  |  |  |  |
| CN(C)C(c1ccccc1)C1CCC(NC(=O)COCCN(Cc2ccccc2)S(=O)(=O)c2ccccc2)CC1 (centres unmarked) [Example 51, 2-(2-(N-benzylphenylsulfonamido)ethoxy)-N-(4-((dimethylamino)(phenyl)methyl)cyclohexyl)acetamide] | 95 | 88 |  |  |  |  | inhibition at 10 µM [3, 7]: 9% |
| CN(C)C(c1ccccc1)C1CCC(NC(=O)COCC2CCCCN2S(=O)(=O)c2ccc(Cl)cc2)CC1 (centres unmarked) [Example 95, 2-((1-(4-chlorophenylsulfonyl)piperidin-2-yl)methoxy)-N-(4-((dimethylamino)(phenyl)methyl)cyclohexyl)acetamide] | 91 | 84 | 22 |  |  |  |  |
| CN(C)C(c1ccccc1)C1CCC(NC(=O)COC2CCCN(S(=O)(=O)c3ccccc3)C2)CC1 (centres unmarked) [Example 109, N-(4-((dimethylamino)(phenyl)methyl)cyclohexyl)-2-(1-(phenylsulfonyl)piperidin-3-yloxy)acetamide] | 89 | 87 | 26 |  |  |  |  |
| CN(C)C(c1ccccc1)C1CCC(NC(=O)COCCC2CCN(S(=O)(=O)c3ccccc3)CC2)CC1 (centres unmarked) [Example 124, N-(4-((dimethylamino)(phenyl)methyl)cyclohexyl)-2-(2-(1-(phenylsulfonyl)piperidin-4-yl)ethoxy)acetamide] | 87 | 89 | 9 |  |  |  |  |
| COc1ccc(S(=O)(=O)N2CCCCC2COCC(=O)NC2CCC(C(c3ccccc3)N(C)C)CC2)cc1 (centres unmarked) [Example 154, N-(4-((dimethylamino)(phenyl)methyl)cyclohexyl)-2-((1-(4-methoxyphenylsulfonyl)piperidin-2-yl)methoxy)acetamide] | 83 | 90 |  |  |  |  | inhibition at 10 µM [3, 7]: 69% |
| COc1cc(C)c(S(=O)(=O)N(C)CCOCC(=O)NC2CCC(C(c3cccc(F)c3)N(C)C)CC2)c(C)c1C (centres unmarked) [Example 159, N-(4-((dimethylamino)(3-fluorophenyl)methyl)cyclohexyl)-2-(2-(4-methoxy-N,2,3,6-tetramethylphenylsulfonamido)ethoxy)acetamide] | 85 | 72 | 91 |  |  |  |  |
| COc1cc(C)c(S(=O)(=O)N(C)CCOCC(=O)NCC2CCC(C(c3cccc(F)c3)N(C)C)CC2)c(C)c1C (centres unmarked) [Example 160, N-((4-((dimethylamino)(3-fluorophenyl)methyl)cyclohexyl)methyl)-2-(2-(4-methoxy-N,2,3,6-tetramethylphenylsulfonamido)ethoxy)acetamide] | 88 | 80 | 98 |  |  |  |  |
| CN(C)C(c1ccccc1)C1CCC(NC(=O)COc2ccccc2N(C)S(=O)(=O)c2ccc(Cl)c(Cl)c2)CC1 (centres unmarked) [Example 166, 2-(2-(3,4-dichloro-N-methylphenylsulfonamido)phenoxy)-N-(4-((dimethylamino)(phenyl)methyl)cyclohexyl)acetamide] | 87 | 91 | 74 |  |  |  |  |
| COc1ccc(S(=O)(=O)N2CCCCC2COCC(=O)NC2CCC(C(c3ccccc3)N(C)C)CC2)c(OC)c1 (centres unmarked) [Example 187, 2-((1-(2,4-dimethoxyphenylsulfonyl)piperidin-2-yl)methoxy)-N-(4-((dimethylamino)(phenyl)methyl)cyclohexyl)acetamide] | 79 | 81 | -6 |  |  |  |  |
| COc1ccc(S(=O)(=O)N2CCCCC2COCC(=O)NC2CCC(C(c3ccccc3)N(C)C)CC2)cc1OC (centres unmarked) [Example 198, 2-((1-(3,4-dimethoxyphenylsulfonyl)piperidin-2-yl)methoxy)-N-(4-((dimethylamino)(phenyl)methyl)cyclohexyl)acetamide] | 78 | 88 | -12 |  |  |  |  |
| CN(C)C(c1ccccc1)C1CCC(NC(=O)COC2CCN(S(=O)(=O)c3ccccc3)CC2)CC1 (centres unmarked) [Example 257] |  |  |  | 74 | 86 | 26 |  |
| CN(C)C(c1ccccc1)C1CCC(NC(=O)COCc2c(N(C)S(=O)(=O)c3ccc(Cl)c(Cl)c3)sc3c2CCCC3)CC1 (centres unmarked) [Example 369] |  |  |  | 66 | 66 | 21 |  |
| COc1cc(C)c(S(=O)(=O)N(C)CCOCC(=O)NC2CCC(C(c3ccc(F)cc3)N(C)C)CC2)c(C)c1C (centres unmarked) [Example 380] |  |  |  | 55 | 81 | 86 |  |
| Cc1cc(C)c(S(=O)(=O)N(C)CCOCC(=O)NCCC2CCC(C(c3cccs3)N(C)C)CC2)c(C)c1 (centres unmarked) [Example 385] |  |  |  | 59 | 93 | 15 |  |
| Cc1cc(C)c(S(=O)(=O)N(C)CCOCC(=O)NCCC2CCC(C(c3ccc(F)cc3)N(C)C)CC2)c(C)c1 (centres unmarked) [Example 417] |  |  |  | 60 | 91 | 100 |  |
| COc1cc(C)c(S(=O)(=O)N(C)CCOCC(=O)NCC2CCC(C(CCc3ccccc3)N(C)C)CC2)c(C)c1C (centres unmarked) [Example 453] |  |  |  | 46 | 89 | 97 |  |
| CN(C)C(c1cccs1)C1CCC(CCNC(=O)COCCN(C)S(=O)(=O)c2c(F)c(F)c(F)c(F)c2F)CC1 (centres unmarked) [Example 465] |  |  |  | 48 | 72 | −3 |  |
| COc1cc(C)c(S(=O)(=O)N(CCOCC(=O)NC2CCC(C(c3ccccc3)N(C)C)CC2)Cc2ccccc2)c(C)c1 (centres unmarked) [Example 483] |  |  |  | 38 | 65 | 34 |  |
| CN(C)C(CCc1ccccc1)C1CCC(NC(=O)COCc2ccccc2)CC1 (centres unmarked) [Example 582] |  |  |  | 9 | 75 |  |  |
| CN(C)C(c1ccccc1)C1CCC(NC(=O)COCCN(C)S(=O)(=O)c2c(Cl)cc(Cl)cc2Cl)CC1 (centres unmarked) [Example 598, N-[4-(dimethylaminophenylmethyl)-cyclohexyl]-2-{2-[methyl-(2,4,6-trichlorobenzenesulfonyl)-amino]-ethoxy}-acetamide] |  |  |  |  |  | 86 | inhibition at 1 µM ([1]; 1.5 h, Table 2, test concentration 1 μM, read-out: μ receptor): 91%; inhibition at 10 µM ([2]; Table 2, test concentration 10 μM, read-out: 5-HT reuptake): 75% |
